Data: patent publication US10532065B2, “Bisphosphonic acid derivative and application for same” (NAGASAKI UNIVERSITY, priority 2014, dated 2020)
Several values for one entry are separate records, joined by “and”; a condition that tells them apart may be missing. Identical values can stand only once. Like-named read-outs stand apart in the source and are kept apart here. One block for each compound: values may come before it.

Experiments:
Format in all cases: cell-based
K562 cells = experiment: K562 tumor cell growth inhibition (CellTiterGlo); settings: K562, Erythromcytoma, 4 days culture
Protocol: (§2) To quantitatively study an action of compound 7, which is a bisphosphonic acid POM ester derivative, on various hematologic tumor-derived lymphoma and myeloidic leukemia cells, the concentration of a compound that inhibits cell proliferation to half was calculated as IC50, and a direct antitumor effect was studied from the value thereof. […] First, MOLT-4, THP-1, SCC-3, PEER, RAMOS-RA1, C1R, MOLT-3, Raji, U937, K562, Daudi were cultured in RPMI1640 medium supplemented with 10% calf serum at 37° C. under 5% CO2 atmosphere while maintaining log phase. The cells were recovered, and centrifuged at 1,700 rpm, 4° C. for 5 min. The supernatant was removed, and suspended in RPMI1640 medium supplemented with 10% calf serum to 500 cells/50 μl. On the other hand, 10 mM stock solution of compound 7 which is a bisphosphonic acid POM ester derivative was serially diluted 2-fold from 200 μM. In addition, 10 mM stock solution of compound 14 which is bisphosphonic acid was serially diluted 2-fold from 2 mM. Then, the cell suspension (50 μl, 500 cells) and the compound solution (50 μl) were added to a flat-bottomed 96 well plate and cultured at 37° C. under 5% CO2 atmosphere for 4 days. Then, 100 μl of CellTiterGlo solution was added, and the mixture was pipetted 10 strokes, and transferred to a 96 well OptiPlate. […]

EJ-1 cells = experiment: EJ-1 cell growth inhibition (direct antitumor action, CellTiterGlo); settings: for IC50: EJ-1 (bladder cancer) growth inhibition, 4 days culture
Outline: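 EJ-1 cells run as in the earlier U937 protocol, with cells recovered by conventional EDTA-trypsin treatment. POM ester derivatives were tested side by side with the parent bisphosphonic acids for direct growth inhibition, read by CellTiterGlo.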

OST cells / γδ T cells = experiment: TNF-α production from γδ T cells stimulated by compound-pretreated OST cells; settings: Osteosarcoma, 4 hr pretreatment, 16 hr with γδ T cells, read-out: TNF-α50
Protocol: (§1) Since the above-mentioned results of Experimental Example confirm that the activity of bisphosphonic acids becomes high by POM esterification in various tumor cells, the TNF-α production induction ability of more number of tumor cells was quantitatively studied. […] Thereto was added a solution (500 μl) of compound 7 obtained by serially diluting 10 mM stock solution 10-fold from 20 μM, or a solution (500 μl) of compound 14 obtained by serially diluting 10 mM stock solution 10-fold from 200 μM, and the cells were suspended well. These conical tubes were stood at 37° C. for 4 hr, and the cells were washed 3 times with 5 ml of culture medium. To these cells was added 500 μl of medium, and the cells were suspended well. […] The cell culture medium was suspended well, and the plate was centrifuged at 1,700 rpm, 4° C. for 2 min and the culture supernatant (150 μl) was taken and placed in another round-bottomed 96 well plate. The plate was frozen at −80° C. overnight, left standing at room temperature for 1 hr, stirred well and 100 μl thereof was subjected to ELISA of TNF-α. The content of TNF-α was calculated from the analytical curve of TNF-α. These were performed in triplicate, and TNF-α50 of bisphosphonic acid POM ester derivative (compound 7) and bisphosphonic acid (compound 14) was calculated and summarized in Table 8.

TFK-1 cells / γδ T cells = experiment: TNF-α production from γδ T cells stimulated by compound-pretreated TFK-1 cells; settings: TFK-1, Cholangiocarcinoma, 4 hr pretreatment, 16 hr with γδ T cells, read-out: TNF-α50
Protocol: as §1

Raji cells / γδ T cells = experiment: TNF-α production from γδ T cells stimulated by compound-pretreated Raji cells; settings: Burkitt's lymphoma, 4 hr pretreatment, 16 hr with γδ T cells, read-out: TNF-α50
Protocol: as §1

SCC-3 cells = experiment: SCC-3 tumor cell growth inhibition (CellTiterGlo); settings: SCC-3, Non-Hodgkin's lymphoma, 4 days culture
Protocol: as §2

OST cells = experiment: OST tumor cell growth inhibition (CellTiterGlo); settings: Osteosarcoma, 4 days culture
Protocol: (§3) First, EJ-1, 786-0, MKN1, OST, PC-3, PK-1, LK-2, G-361, TFK-1, MRK-nu-1 were cultured in RPMI1640 medium supplemented with 10% calf serum at 37° C. under 5% CO2 atmosphere while maintaining log phase. The cells were recovered by a conventional EDTA trypsin treatment, and centrifuged at 1,700 rpm, 4° C. for 5 min. The supernatant was removed, and suspended in RPMI1640 medium supplemented with 10% calf serum to 500 cells/50 μl. On the other hand, 10 mM stock solution of compound 7 which is a bisphosphonic acid POM ester derivative was serially diluted 2-fold from 200 pM. In addition, 10 mM stock solution of compound 14 which is bisphosphonic acid was serially diluted 2-fold from 2 mM. Then, the cell suspension (50 μl, 500 cells) and the compound solution (50 μl) were added to a flat-bottomed 96 well plate and cultured at 37° C. under 5% CO2 atmosphere for 4 days. Then, 100 μl of CellTiterGlo solution was added, and the mixture was pipetted 10 strokes, and transferred to a 96 well OptiPlate. After standing at room temperature for 10 min, the luminescence was measured by a luminometer and IC50 value was calculated.

THP-1 cells = experiment: THP-1 tumor cell growth inhibition (CellTiterGlo); settings: THP-1, Acute monocytic leukemia, 4 days culture
Protocol: as §2

MOLT-4 cells = experiment: MOLT-4 tumor cell growth inhibition (CellTiterGlo); settings: MOLT-4, Acute lymphoblastic leukemia, 4 days culture
Protocol: as §2

K562 cells / γδ T cells = experiment: TNF-α production from γδ T cells stimulated by compound-pretreated K562 cells; settings: K562, Erythrocytoma, 4 hr pretreatment, 16 hr with γδ T cells, read-out: TNF-α50
Protocol: as §1

PEER cells = experiment: PEER tumor cell growth inhibition (CellTiterGlo); settings: T cell acute lymphocytic leukemia, 4 days culture
Protocol: as §2

U937 cells = experiment: U937 cell growth inhibition (direct antitumor action, CellTiterGlo); settings: for IC50: U937 cell growth inhibition, 4 days culture
Protocol: The direct antitumor action of bisphosphonic acid POM ester and bisphosphonic acid was studied by comparison using U937.
The direct antitumor action of various bisphosphonic acid POM esters was studied by comparison using U937 and EJ-1. The measurement was performed according to Experimental Example 2 and Experimental Example 4.

PK-1 cells = experiment: PK-1 tumor cell growth inhibition (CellTiterGlo); settings: PK-1, Pancreatic cancer, 4 days culture
Protocol: as §3

RAMOS-RA1 cells = experiment: RAMOS-RA1 tumor cell growth inhibition (CellTiterGlo); settings: PAMOS-RA1 (so in the source), Burkitt's lymphoma, 4 days culture
Protocol: as §2

LK-2 cells = experiment: LK-2 tumor cell growth inhibition (CellTiterGlo); settings: LK-2, Lung cancer, 4 days culture
Protocol: as §3

C1R cells = experiment: C1R tumor cell growth inhibition (CellTiterGlo); settings: B cell lymphoma, 4 days culture
Protocol: as §2

TFK-1 cells = experiment: TFK-1 tumor cell growth inhibition (CellTiterGlo); settings: TFK-1, Cholangiocarcinoma, 4 days culture
Protocol: as §3

LK-2 cells / γδ T cells = experiment: TNF-α production from γδ T cells stimulated by compound-pretreated LK-2 cells; settings: LK-2, Lung cancer, 4 hr pretreatment, 16 hr with γδ T cells, read-out: TNF-α50
Protocol: as §1

MKN1 cells = experiment: MKN1 tumor cell growth inhibition (CellTiterGlo); settings: MKN1, Gastric cancer, 4 days culture
Protocol: as §3

[1] = system: RAMOS-RA1 cells / γδ T cells; experiment: TNF-α production from γδ T cells stimulated by compound-pretreated RAMOS-RA1 cells; settings: RAMOS-RA1, Burkitt's lymphoma, 4 hr pretreatment, 16 hr with γδ T cells, read-out: TNF-α50
Protocol: as §1

786-0 cells / γδ T cells = experiment: TNF-α production from γδ T cells stimulated by compound-pretreated 786-0 cells; settings: 786-0, Renal cell carcinoma, 4 hr pretreatment, 16 hr with γδ T cells, read-out: TNF-α50
Protocol: as §1

[2] = system: MOLT-3 cells / γδ T cells; experiment: TNF-α production from γδ T cells stimulated by compound-pretreated MOLT-3 cells; settings: MOLT-3, Acute lymphoblastic leukemia, 4 hr pretreatment, 16 hr with γδ T cells, read-out: TNF-α50
Protocol: as §1

[3] = system: YMB-1-E cells / γδ T cells; experiment: TNF-α production from γδ T cells stimulated by compound-pretreated YMB-1-E cells; settings: Mammary carcinoma, 4 hr pretreatment, 16 hr with γδ T cells, read-out: TNF-α50
Protocol: as §1

MRK-nu-1 cells = experiment: MRK-nu-1 tumor cell growth inhibition (CellTiterGlo); settings: MRK-nu-1, Mammary carcinoma, 4 days culture
Protocol: as §3

SMILES: CC(C)(C)C(=O)OCOP(=O)(OCOC(=O)C(C)(C)C)C(CNc1nccs1)P(=O)(OCOC(=O)C(C)(C)C)OCOC(=O)C(C)(C)C [Compound 7, tetrakispivaloyloxymethyl 2-(thiazol-2-ylamino) ethylidene-1,1-bisphosphonate]
IC50 (K562 cells): 0.029 µM
IC50 (EJ-1 cells): 26 nM
direct antitumor activity (in words) (EJ-1 cells; EJ-1 growth inhibition): particularly high activity
EC50 (OST cells / γδ T cells): 600 nM
EC50 (TFK-1 cells / γδ T cells): 66 nM
EC50 (Raji cells / γδ T cells): 53 nM
IC50 (SCC-3 cells): 0.18 µM
IC50 (OST cells): 0.81 µM
IC50 (THP-1 cells): 0.035 µM
IC50 (MOLT-4 cells): 0.16 µM
EC50 (K562 cells / γδ T cells): 80 nM
IC50 (PEER cells): 0.023 µM
IC50 (U937 cells): 280 nM and 260 nM
direct antitumor activity (in words) (U937 cells; U937 growth inhibition): particularly high activity
IC50 (PK-1 cells): 0.34 µM
IC50 (RAMOS-RA1 cells): 0.11 µM
IC50 (LK-2 cells): 0.8 µM
IC50 (C1R cells): 0.078 µM
IC50 (TFK-1 cells): 0.1 µM
EC50 (LK-2 cells / γδ T cells): 97 nM
IC50 (MKN1 cells): 1.2 µM
EC50 [1]: 140 nM
EC50 (786-0 cells / γδ T cells): 65 nM
EC50 [2]: 66 nM
EC50 [3]: 630 nM
IC50 (MRK-nu-1 cells): 0.74 µM

IC50 (K562 cells; Homo sapiens, 96 h): 16 µM
IC50 (EJ-1 cells; EJ1, 96 h): 3700 nM
EC50 (OST cells / γδ T cells; T-cell): > 100000 nM
EC50 (TFK-1 cells / γδ T cells; T-cell): > 100000 nM
EC50 (Raji cells / γδ T cells; Homo sapiens): > 100000 nM
IC50 (SCC-3 cells; Homo sapiens, 96 h): 66 µM
IC50 (OST cells; 96 h): 66 µM
IC50 (THP-1 cells; Homo sapiens, 96 h): 130 µM
IC50 (MOLT-4 cells; Homo sapiens, 96 h): 120 µM
EC50 (K562 cells / γδ T cells; Homo sapiens): > 100000 nM
IC50 (PEER cells; 96 h): 82 µM
IC50 (U937 cells; Homo sapiens, U-937, 96 h): 26000 nM
IC50 (PK-1 cells; 96 h): 110 µM
IC50 (RAMOS-RA1 cells; 96 h): 75 µM
IC50 (LK-2 cells; Homo sapiens, 96 h): 35 µM
IC50 (C1R cells; 96 h): 79 µM
IC50 (TFK-1 cells; 96 h): 30 µM
EC50 (LK-2 cells / γδ T cells; Homo sapiens): > 100000 nM
IC50 (MKN1 cells; Homo sapiens, MKN-1, 96 h): 100 µM
EC50 ([1]; T-cell): > 100000 nM
EC50 (786-0 cells / γδ T cells; Homo sapiens): > 100000 nM
EC50 ([2]; Homo sapiens): > 100000 nM
EC50 ([3]; Homo sapiens): > 100000 nM
IC50 (MRK-nu-1 cells; Homo sapiens, 96 h): 210 µM
SMILES: O=P(O)(O)C(CNc1nccs1)P(=O)(O)O [Compound 14, 2-(thiazol-2-ylamino)ethylidene-1,1-bisphosphonic Acid, reference compound]
